In publication PMC5750217 (Nature Communications, 2018):
Substitutions are numbered along the chain they refer to.

Assays:
[1] = target: T1, A1-T458S/T459C (mutant ASCT1) (Homo sapiens, UniProt P43007, T458S/T459C); test: Radiolabelled uptake in oocytes expressing A1-T458S/T459C; assay type: cell-based; conditions: 10 µM L-[3H]substrate, 10 min, room temperature
T1 construct: expressed in transfected cells; host or cells: Xenopus laevis oocytes (cRNA injection)
T1 sequence (P43007 1-532 T458S/T459C): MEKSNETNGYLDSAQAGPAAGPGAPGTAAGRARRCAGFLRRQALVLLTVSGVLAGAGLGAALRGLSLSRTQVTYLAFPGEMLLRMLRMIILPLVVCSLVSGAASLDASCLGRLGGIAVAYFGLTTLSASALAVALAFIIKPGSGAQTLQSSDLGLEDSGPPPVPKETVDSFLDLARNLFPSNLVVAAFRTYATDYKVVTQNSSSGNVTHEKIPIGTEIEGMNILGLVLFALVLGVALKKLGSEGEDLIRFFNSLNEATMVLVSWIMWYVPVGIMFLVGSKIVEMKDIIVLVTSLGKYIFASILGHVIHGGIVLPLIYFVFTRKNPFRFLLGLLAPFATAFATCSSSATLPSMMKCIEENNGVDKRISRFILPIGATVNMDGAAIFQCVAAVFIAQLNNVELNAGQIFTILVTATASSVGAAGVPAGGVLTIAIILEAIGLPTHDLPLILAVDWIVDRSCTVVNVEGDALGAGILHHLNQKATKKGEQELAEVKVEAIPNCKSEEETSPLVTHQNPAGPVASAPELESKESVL
Description: Uptake of L-[^3H]amino acids (PerkinElmer Life Sciences) was measured in oocytes expressing wild-type and mutant ASCT1, and uninjected oocytes. Five oocytes were incubated in Cl^−-containing buffer with 10 µM L-[^3H]amino acids at room temperature. After 10 min, uptake was terminated by three rapid washes in ice-cold Cl^−-containing buffer followed by lysis in 50 mM NaOH and 1% SDS. L-[^3H]amino acids were measured by scintillation counting using a Trilux beta counter (PerkinElmer Life Sciences).

[2] = target: T2, A1-T458S (mutant ASCT1) (Homo sapiens, UniProt P43007, T458S); test: Two electrode voltage clamp, substrate-activated anion current in oocytes expressing A1-T458S; assay type: cell-based; conditions: NO3−-containing buffer, current at +60 mV, dash = substrate did not generate currents
T2 construct: expressed in transfected cells; host or cells: Xenopus laevis oocytes (cRNA injection)
T2 sequence (P43007 1-532 T458S): T1 sequence (P43007 1-532 T458S/T459C) with C459T
Description: All chemicals were obtained from Sigma unless otherwise stated. Stage V oocytes were harvested from female Xenopus laevis (frogs) which were obtained from Nasco (Fort Alkinson, USA). Frogs were anaesthetised with 6.5 mM tricaine neutralised with 7.14 mM sodium bicarbonate. After making an incision in the abdomen of the frog, ovarian sacs were removed and stored in OR-2 buffer (82.5 mM NaCl, 2 mM KCl, 1 mM MgCl2, 5 mM hemisodium HEPES, pH 7.5). This surgical procedure follows a protocol (#2016/970) approved by the University of Sydney Animal Ethics Committee under the Australian Code of Practice for the Care and Use of Animals for Scientific Purposes. […]
After 2–4 days of microinjection, current recordings were made using the two electrode voltage clamp technique with a Geneclamp 500 amplifier (Axon Instruments, Foster City, CA) interfaced with a MacLab 2e chart recorder (ADI Instruments, Sydney, Australia) using the chart software, and a Digidata 1322A (Axon Instruments) controlled by an IBM-compatible computer using the pClamp software (version 10, Molecular Devices, Union City, CA). […] Current–voltage relationships were calculated by subtracting steady state current measurements in the absence of substrate from corresponding current measurements in the presence of substrate. […]

| SMILES | Radiolabelled substrate uptake into oocytes (in words) [1] | EC50 of substrate-activated current [2] | EC50 [2] [µM] |
| --- | --- | --- | --- |
| NC(=O)CC[C@H](N)C(=O)O [L-glutamine] | robust accumulation | does not respond |  |
| N[C@@H](CO)C(=O)O [L-serine] | robust accumulation |  | 106 ± 4 |
